Results from ChEMBL document CHEMBL3046607, “Synthesis and Herbicidal Activity of New 1-Alkyl-3-aryloxypyrazole-4-carboxamide Derivatives” (J Pestic Sci, 2004).
Activity calls are given as the source filed them. No cut-off for these calls is given here.

Experiments:
Lindernia procumbens [1] = test: Pre-emergence herbicidal activity against Lindernia procumbens at 33 g a.i/ha measured after 14 days; type: functional, organism-based
Oryza sativa [2] = test: Phytotoxicity against Oryza sativa cv. Koshihikari (rice) at 100 g a.i/ha measured after 14 days; type: organism-based; details: in vivo, 336 h
Oryza sativa [3] = test: Phytotoxicity against Oryza sativa cv. Koshihikari (rice) at 33 g a.i/ha measured after 14 days; type: organism-based; details: in vivo, 336 h
Elatine triandra [4] = test: Pre-emergence herbicidal activity against Elatine triandra assessed as bleaching of stem/leaf parts; type: functional, organism-based
Lindernia procumbens [5] = test: Pre-emergence herbicidal activity against Lindernia procumbens assessed as bleaching of stem/leaf parts; type: functional, organism-based
[6] = system: Schoenoplectiella juncoides; test: Pre-emergence herbicidal activity against Schoenoplectiella juncoides at 100 g a.i/ha measured after 14 days; type: functional, organism-based
Elatine triandra [7] = test: Post-emergence herbicidal activity against Elatine triandra assessed as bleaching of stem/leaf parts; type: functional, organism-based; note: test concentration or dose not given here
Rotala indica [8] = test: Pre-emergence herbicidal activity against Rotala indica assessed as bleaching of stem/leaf parts; type: functional, organism-based
Cyperus difformis [9] = test: Pre-emergence herbicidal activity against Cyperus difformis assessed as bleaching of stem/leaf parts; type: functional, organism-based
Elatine triandra [10] = test: Pre-emergence herbicidal activity against Elatine triandra at 33 g a.i/ha measured after 14 days; type: functional, organism-based
Echinochloa oryzicola [11] = test: Pre-emergence herbicidal activity against Echinochloa oryzicola at 33 g a.i/ha measured after 14 days; type: functional, organism-based
Echinochloa oryzicola [12] = test: Pre-emergence herbicidal activity against Echinochloa oryzicola assessed as bleaching of stem/leaf parts; type: functional, organism-based
Cyperus difformis [13] = test: Pre-emergence herbicidal activity against Cyperus difformis at 33 g a.i/ha measured after 14 days; type: functional, organism-based
Rotala indica [14] = test: Post-emergence herbicidal activity against Rotala indica assessed as bleaching of stem/leaf parts; type: functional, organism-based
[15] = system: Schoenoplectiella juncoides; test: Post-emergence herbicidal activity against Schoenoplectiella juncoides assessed as bleaching of stem/leaf parts; type: functional, organism-based; note: test concentration or dose not given here
Ammannia multiflora [16] = test: Post-emergence herbicidal activity against Ammannia multiflora assessed as bleaching of stem/leaf parts; type: functional, organism-based
Echinochloa oryzicola [17] = test: Post-emergence herbicidal activity against Echinochloa oryzicola assessed as bleaching of stem/leaf parts; type: functional, organism-based
Lindernia procumbens [18] = test: Pre-emergence herbicidal activity against Lindernia procumbens at 100 g a.i/ha measured after 14 days; type: functional, organism-based
Pontederia vaginalis [19] = test: Pre-emergence herbicidal activity against Monochoria vaginalis assessed as bleaching of stem/leaf parts; type: functional, organism-based
Ammannia multiflora [20] = test: Pre-emergence herbicidal activity against Ammannia multiflora at 100 g a.i/ha measured after 14 days; type: functional, organism-based
Cyperus difformis [21] = test: Post-emergence herbicidal activity against Cyperus difformis assessed as bleaching of stem/leaf parts; type: functional, organism-based; note: test concentration or dose not given here
Rotala indica [22] = test: Pre-emergence herbicidal activity against Rotala indica at 33 g a.i/ha measured after 14 days; type: functional, organism-based
Cyperus difformis [23] = test: Pre-emergence herbicidal activity against Cyperus difformis at 100 g a.i/ha measured after 14 days; type: functional, organism-based
Rotala indica [24] = test: Pre-emergence herbicidal activity against Rotala indica at 100 g a.i/ha measured after 14 days; type: functional, organism-based
Pontederia vaginalis [25] = test: Pre-emergence herbicidal activity against Monochoria vaginalis at 33 g a.i/ha measured after 14 days; type: functional, organism-based
Pontederia vaginalis [26] = test: Post-emergence herbicidal activity against Monochoria vaginalis assessed as bleaching of stem/leaf parts; type: functional, organism-based
Pontederia vaginalis [27] = test: Pre-emergence herbicidal activity against Monochoria vaginalis at 100 g a.i/ha measured after 14 days; type: functional, organism-based
[28] = system: Schoenoplectiella juncoides; test: Pre-emergence herbicidal activity against Schoenoplectiella juncoides at 33 g a.i/ha measured after 14 days; type: functional, organism-based
Lindernia procumbens [29] = test: Post-emergence herbicidal activity against Lindernia procumbens assessed as bleaching of stem/leaf parts; type: functional, organism-based; note: test concentration or dose not given here
Ammannia multiflora [30] = test: Pre-emergence herbicidal activity against Ammannia multiflora at 33 g a.i/ha measured after 14 days; type: functional, organism-based
[31] = system: Schoenoplectiella juncoides; test: Pre-emergence herbicidal activity against Schoenoplectiella juncoides assessed as bleaching of stem/leaf parts; type: functional, organism-based
Ammannia multiflora [32] = test: Pre-emergence herbicidal activity against Ammannia multiflora assessed as bleaching of stem/leaf parts; type: functional, organism-based
Echinochloa oryzicola [33] = test: Pre-emergence herbicidal activity against Echinochloa oryzicola at 100 g a.i/ha measured after 14 days; type: functional, organism-based
Elatine triandra [34] = test: Pre-emergence herbicidal activity against Elatine triandra at 100 g a.i/ha measured after 14 days; type: functional, organism-based
[35] = system: Schoenoplectiella juncoides; test: Pre-emergence herbicidal activity against Schoenoplectiella juncoides at 500 g a.i/ha measured after 14 days; type: functional, organism-based
Pontederia vaginalis [36] = test: Pre-emergence herbicidal activity against Monochoria vaginalis at 500 g a.i/ha measured after 14 days; type: functional, organism-based
Echinochloa oryzicola [37] = test: Pre-emergence herbicidal activity against Echinochloa oryzicola at 500 g a.i/ha measured after 14 days; type: functional, organism-based
Elatine triandra [38] = test: Pre-emergence herbicidal activity against Elatine triandra at 500 g a.i/ha measured after 14 days; type: functional, organism-based
Oryza sativa [39] = test: Phytotoxicity against Oryza sativa cv. Koshihikari (rice) at 500 g a.i/ha measured after 14 days; type: organism-based; details: in vivo, 336 h
Rotala indica [40] = test: Pre-emergence herbicidal activity against Rotala indica at 500 g a.i/ha measured after 14 days; type: functional, organism-based
Cyperus difformis [41] = test: Pre-emergence herbicidal activity against Cyperus difformis at 500 g a.i/ha measured after 14 days; type: functional, organism-based
Lindernia procumbens [42] = test: Pre-emergence herbicidal activity against Lindernia procumbens at 500 g a.i/ha measured after 14 days; type: functional, organism-based
Ammannia multiflora [43] = test: Pre-emergence herbicidal activity against Ammannia multiflora at 500 g a.i/ha measured after 14 days; type: functional, organism-based

Compound	Activity (Oryza sativa [2])	Activity (Elatine triandra [4])	Activity (Lindernia procumbens [5])	Activity [6]	Activity (Elatine triandra [7])	Activity (Rotala indica [8])	Activity (Cyperus difformis [9])	Activity (Echinochloa oryzicola [12])	Activity (Rotala indica [14])	Activity [15]	Activity (Ammannia multiflora [16])	Activity (Echinochloa oryzicola [17])	Activity (Lindernia procumbens [18])	Activity (Pontederia vaginalis [19])	Activity (Ammannia multiflora [20])	Activity (Cyperus difformis [21])	Activity (Cyperus difformis [23])	Activity (Rotala indica [24])	Activity (Pontederia vaginalis [26])	Activity (Pontederia vaginalis [27])	also measured
CCONC(=O)c1cn(C)nc1OCc1cccc(C(F)(F)F)c1	Non-toxic	Active	Active	Active	Active	Active	Active	Active	Active	Active	Active	Active	Active	Active	Active	Active	Active	Active	Active	Active	Activity (Lindernia procumbens [1]): Active; Activity (Oryza sativa [3]): Non-toxic; Activity (Elatine triandra [10]): Active; Activity (Echinochloa oryzicola [11]): Active; Activity (Cyperus difformis [13]): Active; Activity (Rotala indica [22]): Active; Activity (Pontederia vaginalis [25]): Active; Activity [28]: Active; Activity (Lindernia procumbens [29]): Active; Activity (Ammannia multiflora [30]): Active; Activity [31]: Active; Activity (Ammannia multiflora [32]): Active; Activity (Echinochloa oryzicola [33]): Active; Activity (Elatine triandra [34]): Active
COc1ccc(NC(=O)c2cn(C)nc2Oc2cccc(C(F)(F)F)c2)cc1OC	Non-toxic	Active	Active	inactive	Active	Active	Active	Active	Active	Active	Active	Active	inactive	Active	inactive	Active	inactive	inactive	Active	inactive	Activity (Lindernia procumbens [29]): Active; Activity [31]: Active; Activity (Ammannia multiflora [32]): Active; Activity (Echinochloa oryzicola [33]): inactive; Activity (Elatine triandra [34]): inactive
Cn1cc(C(=O)Nc2ccccc2)c(OCc2cccc(C(F)(F)F)c2)n1	Non-toxic	Active	Active	inactive	Active	Active	Active	Active	Active	Active	Active	Active	Active	Active	Active	Active	inactive	Active	Active	inactive	Activity (Lindernia procumbens [29]): Active; Activity [31]: Active; Activity (Ammannia multiflora [32]): Active; Activity (Echinochloa oryzicola [33]): Active; Activity (Elatine triandra [34]): Active
CCONC(=O)c1cn(C)nc1Oc1cccc(C(F)(F)F)c1	Non-toxic	Active	Active	inactive	Active	Active	Active	Active	Active	Active	Active	Active	inactive	Active	inactive	Active	inactive	inactive	Active	inactive	Activity [35]: Active; Activity (Pontederia vaginalis [36]): Active; Activity (Echinochloa oryzicola [37]): Active; Activity (Elatine triandra [38]): Active; Activity (Oryza sativa [39]): Toxic; Activity (Rotala indica [40]): Active; Activity (Lindernia procumbens [29]): Active; Activity (Cyperus difformis [41]): Active; Activity (Lindernia procumbens [42]): Active; Activity (Ammannia multiflora [43]): Active; Activity [31]: Active; Activity (Ammannia multiflora [32]): Active; Activity (Echinochloa oryzicola [33]): Active; Activity (Elatine triandra [34]): inactive
Cn1cc(C(=O)Nc2cccc(S(C)(=O)=O)c2)c(Oc2cccc(C(F)(F)F)c2)n1	Non-toxic	Active	Active	inactive	Active	Active	Active	Active	Active	Active	Active	Active	inactive	Active	inactive	Active	inactive	inactive	Active	inactive	Activity (Lindernia procumbens [29]): Active; Activity [31]: Active; Activity (Ammannia multiflora [32]): Active; Activity (Echinochloa oryzicola [33]): inactive; Activity (Elatine triandra [34]): inactive
